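Results reflect a 48-hour exposure of cells in 96-well plates to compound at five concentrations. GI50 marks 50% less growth. TGI marks complete inhibition of growth.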 Where a SMILES comes first, the peptide text is derived from it.
Experiments:
Assay in all cases: DTP human tumour cell line panel, 48 h
CAKI-1 renal = system: CAKI-1 renal
OVCAR-3 ovarian = system: OVCAR-3 ovarian
SK-MEL-28 melanoma = system: SK-MEL-28 melanoma
OVCAR-5 ovarian = system: OVCAR-5 ovarian
OVCAR-8 ovarian = system: OVCAR-8 ovarian
MOLT-4 leukemia = system: MOLT-4 leukemia
SF-268 CNS = system: SF-268 CNS
A498 renal = system: A498 renal
NCI-H23 lung = system: NCI-H23 lung
U251 CNS = system: U251 CNS

| Compound | TGI (CAKI-1 renal) [µM] | TGI (OVCAR-3 ovarian) [µM] | TGI (SK-MEL-28 melanoma) [µM] | TGI (OVCAR-5 ovarian) [µM] | TGI (OVCAR-8 ovarian) [µM] | TGI (MOLT-4 leukemia) [µM] | TGI (SF-268 CNS) [µM] | TGI (A498 renal) [µM] | TGI (NCI-H23 lung) [µM] | TGI (U251 CNS) [µM] | GI50 (A498 renal) [µM] |
| --- | --- | --- | --- | --- | --- | --- | --- | --- | --- | --- | --- |
| CC1=C2C(O)C(C(C)C(=O)NCC(C)C)CCC2(C)C=CC1=O (stereo unspecified) | > 100 | > 100 | > 100 | > 100 | > 100 | > 100 | > 100 | > 100 | > 100 | > 100 | – |
| COc1c2c(c(OC)c3c1c(=O)c1ccccc1n3C)OCO2 | > 100 | > 100 | > 100 | > 100 | > 100 | > 31.6 | > 100 | > 100 | > 100 | > 100 | – |
| CSC(SC)=C1CC(=O)Nc2ccccc2C1=O | 94.1 | > 100 | > 100 | > 100 | > 100 | 96 | > 100 | > 100 | > 100 | > 100 | – |
| C[C@]12CC[C@@H]3c4ccc(O)cc4CC[C@H]3[C@@H]1C/C(=C\c1ccc([N+](=O)[O-])cc1)C2=O | > 100 | > 100 | > 100 | > 100 | > 100 | > 100 | > 100 | > 100 | > 100 | > 100 | – |
| CN(C1=NCCO1)c1cccc2ccccc12 | > 10 | > 10 | > 10 | > 10 | > 10 | > 10 | > 10 | > 10 | > 10 | > 10 | – |
| Brc1cccc(/C=C/CN2CCN(CCOC(c3ccccc3)c3ccccc3)CC2)c1 | 30.2 | 30.2 | 37.5 | 34.7 | 29.7 | 31.1 | 39.6 | 32 | 36.9 | 27.5 | – |
| CCOC(=O)C1(C(=O)OCC)C[C@]23OCCC(=O)[C@H]2[C@H]2C(=O)OC(C)(C)O[C@]23C1 | > 100 | > 100 | > 100 | > 100 | > 100 | > 100 | > 100 | > 100 | > 100 | > 100 | – |
| CC(=O)ON(OC(C)=O)c1ccc(C)cc1 | > 100 | > 100 | > 100 | > 100 | > 100 | > 100 | > 100 | > 100 | > 100 | > 100 | – |
| CCOc1c2ccsc2c(OCC)c2ccsc12 | > 100 | 61.1 | > 100 | > 100 | > 100 | > 28.5 | > 100 | > 100 | > 78 | > 100 | – |
| Cc1[nH]c2ncn3nc(C(Cl)(Cl)Cl)nc3c2c1Cc1ccccc1 | > 100 | > 100 | > 100 | > 100 | > 100 | > 100 | > 100 | > 100 | > 100 | > 100 | – |
| CC1NC(=O)CNC(=O)CNC(=O)C(Cc2ccc(O)cc2)NC(=O)C(C(C)C)NC(=O)C(C)NC1=O (stereo unspecified) (cyclo(GGAAVY); configuration not given here) | > 100 | > 100 | > 100 | > 100 | > 100 | > 100 | > 100 | > 100 | > 100 | > 100 | 75.6 |
| COc1ccc(OC)c(C2CCc3nc4nc(N)nc(N)c4cc3C2)c1 (stereo unspecified) | > 56.2 | 3.54 | 6.34 | 23.3 | 6.93 | 5.3 | 10.4 | 27.5 | 38.3 | 3.28 | – |
| COc1ccc(/C=C2\C=Cc3ccccc32)cc1OC | > 100 | > 100 | > 100 | > 100 | > 100 | > 100 | > 100 | > 100 | > 100 | > 100 | – |
| C=C(O)c1ccccc1C#Cc1ccccc1C(=O)OC | > 10 | > 10 | > 10 | > 10 | > 10 | > 10 | > 10 | > 10 | > 10 | > 10 | – |
| CNc1ncnc(Sc2nc(N)nc3nc[nH]c23)c1[N+](=O)[O-] | 12.9 | 12 | 22.2 | > 77.4 | 18.5 | 4.77 | > 36.5 | > 100 | 13.9 | 26.9 | – |
| CC(C)=CCC[C@]1(C)CC[C@]2(C)C3CCC(=C(C)C)[C@@H](CCCO)[C@]3(C)CC[C@@]2(C)C1 (stereo partly specified) | > 100 | > 100 | > 100 | > 100 | > 100 | > 100 | > 100 | > 100 | > 100 | 61.4 | – |
| Cc1ccc(Nc2nc(=S)[nH]c3[nH]ncc23)cc1 | > 100 | > 100 | > 100 | > 100 | > 100 | > 100 | > 100 | > 100 | > 100 | > 100 | – |
| OC1(c2ccccc2)CC2CCC(C1)N2CCc1ccccc1 (stereo unspecified) | > 100 | > 100 | > 100 | > 100 | > 100 | > 100 | > 100 | 56.4 | > 100 | > 100 | – |
| C/C(=N/NC(=S)Nc1ccccc1Cl)c1ccccn1 | 19.7 | 10.9 | 23 | 5.26 | 9.18 | 3.62 | 34.6 | 9.31 | 32.8 | 15.3 | – |
| CN(C)c1nc(N(C)C)nc(N(C)C)n1 | > 140 | > 143 | > 150 | > 150 | > 150 | 136 | > 150 | > 150 | > 143 | > 150 | – |
| Cc1cc(-c2ccc(C(=O)O)[nH]2)on1 | > 100 | > 100 | > 100 | > 100 | > 100 | > 100 | > 100 | > 100 | > 100 | > 100 | – |
| CC/C(=N\NC(=O)c1cccnc1)c1ccc2c(c1)OCCO2 | > 100 | > 100 | > 100 | > 100 | > 100 | > 100 | > 100 | > 100 | > 100 | > 100 | – |
| O=C(c1ccccc1)c1ccc(C(c2c(O)c3ccccc3oc2=O)c2c(O)c3ccccc3oc2=O)cc1 | 25.3 | > 56.6 | > 73.3 | 51.4 | > 75.1 | 53.9 | 64.7 | 62.6 | 49 | > 78.4 | – |
| Cn1c(=O)oc2cc(C(=O)CSC(=S)N3CCCCCC3)ccc21 | > 100 | > 100 | > 100 | > 100 | > 100 | > 100 | > 100 | > 100 | > 100 | > 100 | – |
